What was measured:
[1] = tested on: murine CD8+ T cells; test: Murine CD8+ T-cell proliferation (CFSE), Example 6; type: cell-based, C57BL/6 mice
Experimental: Preparation of test materials: TTA, compound A and compound B were formulated in RPMI media under aseptic conditions. The pH was adjusted to approximately 7.5 before dosing cells.
Tissue culture and dosing: Splenocytes of C57BL/6 mice were stained with CFSE and prepared, cultured, and dosed. Cells were seeded at 1×10^5 cells/well in a 96-well round-bottomed plate.
Controls: Two controls were used. A negative control dosed with 10 ng/ml IL2 was used, and a positive control dosed with 20 μg/ml ConA and 10 ng/ml IL2 was used.
Treatment: After ConA stimulation (10 μg/ml), cells were dosed with 30 mM compound A, B or C with or without 0.1 mM 30:70 PS:DMPC liposomes. All wells were dosed with 10 ng/ml of IL-2.

[2] = tested on: T-cells isolated from spleens; test: FoxP3/KLRG-1/CTLA4 in T-cells isolated from spleens of compound D-treated animals; type: in vivo; conditions: 2.5 mg IV daily for seven days
Experimental: Animals were treated with 2.5 mg of compound D IV daily for seven days. Upon completion of the treatment period, T-cells isolated from spleens of the animals were analyzed by flow cytometry.

[3] = tested on: Granzyme B and IFN-γ; test: Dose-response of GranzymeB/IFN-γ double positivity in murine CD8+ T-cells, Example 9; type: cell-based, C57BL/6 mice; conditions: Mus musculus, T-cell
Experimental: A dose-response analysis of compounds B-E in murine CD8+ T-cells was conducted to evaluate the effect of dose on GranzymeB/IFN-γ double positivity.
Compound C, D and E were first dissolved in a small volume of DMSO before diluting to the final desired concentration.
Splenocytes from naïve C57BL/6 mice were stained with CFSE, prepared, cultured, and dosed. Cells were seeded at 2×10^5 cells/well. Negative control was dosed with 10 ng/ml IL-2. After ConA stimulation (10 μg/ml), cells were dosed with log 3 dilution of each compound from 3×10^−9 to 30 µM in triplicates. All wells were dosed with 10 ng/ml of IL-2.
Flow cytometer analysis was performed to assess percent CD8+ T-cells and percent activation by double staining for Granzyme B (GzmB) and IFN-γ as described in Example 7. Concentration versus response curve was fitted to a 4- or 5-parameter log-logistic model using the “dre” package in “R”. Both EC50 and EC90 were obtained by model fitting.

[4] = tested on: PD-1; test: Percent PD-1+ T-cells in spleens, single dose on Day 7 (Examples 17, 19, 20); type: in vivo, C57BL6 mice; conditions: E 0.1, 0.25, 1 mg IV or 2.5 mg PO, F 0.03-1 mg IV or 1 mg PO, G 0.1, 0.4, 1 mg IV or 1 mg PO
Experimental: (§1) Melanoma B16F10 cells were injected IV into C57BL6 mice on Day 0. On Day 7, mice were administered a single dose of 0.1 mg, 0.25 mg, or 1 mg of Compound E IV or 2.5 mg Compound E PO. One group was left untreated. Three mice at each time point were sacrificed, and their spleens were extracted. Percent KLRG1+ and PD-1^+ T-cells were quantified. Briefly, single-cell suspensions prepared from the extracted spleens were prepared and stained for KLRG1, PD-1 and CD8, and analyzed by flow cytometry.
as §1, with “of 0.03 mg,” for “of”, “0.3 mg” for “0.25 mg,”, “mg” for “mg of”, “F” for “E”, “1” for “2.5”
as §1, with “0.4” for “0.25”, “mg” for “mg of”, “G” for “E”, “1” for “2.5”

[5] = tested on: KLRG1; test: Percent KLRG1+ T-cells in spleens, single dose on Day 7 (Examples 17, 19, 20); type: in vivo, C57BL6 mice; conditions: for activity after oral administration (KLRG1+, PD1+ T-cells): single PO dose: E 2.5 mg, F 1 mg, G 1 mg; for percent KLRG1+ T-cells compared to untreated animals: single dose, E 0.1, 0.25, 1 mg IV or 2.5 mg PO, F 0.03-1 mg IV or 1 mg PO, G 0.1, 0.4, 1 mg IV or 1 mg PO
Experimental: as §1
as §1, with “of 0.03 mg,” for “of”, “0.3 mg” for “0.25 mg,”, “mg” for “mg of”, “F” for “E”, “1” for “2.5”
as §1, with “0.4” for “0.25”, “mg” for “mg of”, “G” for “E”, “1” for “2.5”

[6] = tested on: TNF-α; test: TNF-α ELISA in RAW 264.7 cells; type: cell-based, mouse; conditions: 0.0001-100 mM, human FVIII antigen
Experimental: (§2) RAW 264.7 cells were prepared, cultured, and dosed as described herein. The RAW 264.7 cell line is an immortalized mouse monocyte macrophage that is very close to primary cells, easy to maintain with minimum manipulation, and known to express TIM4. […] OPLS and TTA were dosed at 100, 70, 50, 30, 10, 3, 1, 0.3, 0.1, 0.03, 0.01, 0.003, 0.001, 0.0003 and 0.0001 mM. Finally, 100 μl of 40 μg/ml of human FVIII as a sample antigen was added to each well. LPS and free protein were used as positive and baseline controls, respectively. OPLS and TTA were formulated in RPMI media in aseptic conditions. The pH was adjusted to approximately 7.5 before dosing cells. TNF-α and TGF-β ELISAs were conducted as per the manufacturer's instructions (TNF-α ELISA kit: R&D systems DY410; TGF-β ELISA kit: R&D systems DY1679).

[7] = tested on: TGF-β; test: TGF-β ELISA in RAW 264.7 cells; type: cell-based, mouse; conditions: 0.0001-100 mM, human FVIII antigen
Experimental: as §2

[8] = tested on: human CD8+ T cells; test: Proliferation of PS-treated human CD8+ T-cells (CFSE); type: cell-based; conditions: 70 mM L-(+)-tartaric acid with 0.1 mM PS
Text: (§3) 30:70 PS:DMPC liposomes were synthesized in PBS.

[9] = tested on: human CD8+ T cells; test: Survival of PS-treated human CD8+ T-cells (viability dye, microscopy)
Experimental: (§13) CD8+ T-cells were stained with CFSE (ThermoFisher Catalog No. 50-169-50), and prepared, cultured, and dosed as described herein. Briefly, cells were seeded at 4×10^5 cells/well. IL-2 (10 ng/ml) was used as a negative control, and ConA (20 μg/ml) in conjunction with IL-2 (10 ng/ml) was used as a positive control. After ConA stimulation (10 μg/ml) in the presence of 10 ng/ml IL-2, cells were dosed in duplicate with PS:DMPC liposomes to give a total of 100, 10, 1, or 0.1 mM of PS. […] Flow cytometer analysis was performed to assess cell survival by viability dye and proliferation by CFSE (gated on survived CD8+ T-cells).
(§14) Cells were observed via a microscope at the end of the incubation period.

[10] = tested on: PD-1 and TIM3; test: PD-1 and TIM3 expression on PS-treated human CD8+ T-cells (flow cytometry); type: cell-based
Text: as §3

[11] = tested on: Granzyme B and IFN-γ; test: GzmB+/IFN-γ+ double-positive murine CD8+ T-cells, Example 7; type: cell-based, C57BL/6 mice; conditions: controls: high dose ConA; 0.1 mM PS liposomes
Text: (§4) In this study, the effects of increasing doses of compound B and compound C on proliferation (CFSE staining), activation (Granzyme B and IFN-γ), and checkpoint modulation (PD1 and TIM3) of murine CD8+ T-cells in the presence and absence of phosphatidylserine (PS) were explored.
(§5) Preparation of test materials: 30:70 PS:DMPC liposomes were synthesized in PBS. […] Compound C was first dissolved in a small volume of DMSO before diluting to the final desired concentration.
(§6) Tissue culture and dosing: Splenocytes of C57BL/6 mice were stained with CFSE and prepared, cultured, and dosed. Cells were seeded at 4×10^5 cells/well.
(§7) Controls: Two controls were used. A negative control dosed with 10 ng/ml IL-2 was used, and a positive control dosed with 20 μg/ml ConA and 10 ng/ml IL-2 was used.
(§8) Treatment: After ConA stimulation (10 μg/ml), cells were dosed with log 3 dilution of compound B or compound C to cover a range from 1×10^−3 to 30 mM in duplicates with or without 0.1 mM PS:DMPC liposomes. All wells were dosed with 10 ng/ml of IL-2.
(§9) Flow cytometer: Flow cytometer analysis was performed to assess cell proliferation by CFSE, activation by double staining for Granzyme B (GzmB) and IFN-γ, checkpoint modulation by double staining for PD-1 and TIM3.
(§10) Exposure-response analysis: Change from baseline was calculated for each marker as follows:
(§11) Concentration versus change was fitted to an appropriate three-, four- or five-parameter log-logistic model using “dre” package in “R.”
(§12) The fold change from baseline GzmB+/IFN-γ+ double-positive CD8+ T-cells as a function of increasing doses of compound B was calculated using equation 1, where Responsecontrol was GzmB+/IFN-γ+ double-positive CD8+ T-cells in cells treated with IL-2 alone and Responsetreatment was GzmB+/IFN-γ+ double-positive CD8+ T-cells at each dose of compound B. The baseline PS response was calculated using the same equation with Responsetreatment as the GzmB+/IFN-γ+ double-positive CD8+ T-cells treated with 0.1 mM PS.

[12] = tested on: human CD8+ T cells
Experimental: as §13, §14

[13] = tested on: TIM3 and PD-1; test: TIM3+/PD-1+ double-positive murine CD8+ T-cells, Example 7; type: cell-based, C57BL/6 mice; conditions: controls: high dose ConA; 0.1 mM PS liposomes
Text: as §4, §5, §6, §7, §8, §9, §10, §11
as §12, with “baseline of TIM3+/PD-1+” for “baseline GzmB+/IFN-γ+”, “was TIM3+/PD-1+” for “was GzmB+/IFN-γ+”, “the TIM3+/PD-1+” for “the GzmB+/IFN-γ+”

[14] = tested on: murine CD8+ T-cells; test: Murine CD8+ T-cell proliferation concentration-response (CFSE), Example 7; type: cell-based, C57BL/6 mice
Text: as §4, §5, §6, §7, §8, §9, §10, §11
The fold change from baseline of CD8+ T-cells proliferation as a function of increasing doses of compound B was calculated using equation 1, where ResponseControl was the proliferation of cells treated with IL-2 alone and Responsetreatment was the proliferation at each dose of compound B. The baseline PS response was calculated using the same equation where Responsetreatment was the proliferation of cells treated with 0.1 mM PS.

[15] = 30 mM, in absence of PS, ConA 10 μg/ml
[16] = 70 mM L-(+)-tartaric acid with 0.1 mM PS

O=C(O)[C@H](O)[C@@H](O)C(=O)OCc1ccccc1 [A, (2R,3R)-4-(benzyloxy)-2,3-dihydroxy-4-oxobutanoic acid]
percent of CD8+ T-cell proliferation [1, 15]: 64.4%

O=C(O)[C@H](O)[C@@H](O)C(=O)OCCC1c2ccccc2-c2ccccc21 [Compound D, (2R,3R)-4-(2-(9H-fluoren-9-yl)ethoxy)-2,3-dihydroxy-4-oxobutanoic acid]
CTA4+/CD8+ T-cells [2]: 0.27%
FoxP3+ CD4+ T-cells [2]: 5.42%
KLRG-1+/CD8+ T-cells [2]: 5.11%
reduction in CTA4+/CD8+ T-cells [2]: 27%
reduction in FoxP3+ CD4+ T-cells compared to control animals [2]: 58%
reduction in KLRG-1+/CD8+ T-cells [2]: 80%
EC50 ([3]; 4-parameter model): 4.1 nM
EC90 ([3]; 4-parameter model): 50 nM
EC50 ([3]; 5-parameter model): 3.5 nM
EC90 ([3]; 5-parameter model): 39 nM
Emax ([3]; FIG. 4, 5-parameter fit, read-out: maximal response (GzmB/IFN-γ double positive CD8+ T-cells)): 40%

O=C(O)[C@H](O)[C@@H](O)C(=O)NCCn1c2ccccc2c2ccccc21 [Compound F, (2R,3R)-4-((2-(9H-carbazol-9-yl)ethyl)amino)-2,3-dihydroxy-4-oxobutanoic acid]
percent PD1+ T-cells compared to untreated animals [4]: dose-dependent reduction
activity after oral administration (KLRG1+, PD1+ T-cells) [5]: effective after oral administration
percent KLRG1+ T-cells compared to untreated animals [5]: dose-dependent reduction

O=C(O)[C@H](O)[C@@H](O)C(=O)NCCCc1ccccc1 [Compound G, (2R,3R)-2,3-dihydroxy-4-oxo-4-((3-phenylpropyl)amino)butanoic acid]
percent PD1+ T-cells compared to untreated animals [4]: dose-dependent reduction
activity after oral administration (KLRG1+, PD1+ T-cells) [5]: effective after oral administration
percent KLRG1+ T-cells compared to untreated animals [5]: dose-dependent reduction

O=C(O)[C@H](O)[C@@H](O)C(=O)O [L-(+)-tartaric acid]
percent of CD8+ T-cell proliferation [1, 15]: 41.74%
TNF-α production [6]: stimulate TNF-α production
TGF-β production [7]: without stimulating TGF-β production
effect on PS-suppressed CD8+ T-cell proliferation/accumulation (CFSE) [8]: partially reversed the effect of PS
increase in viable CD8+ T cells compared to PS-treated cells alone [9, 16]: 65%
PD-1 expression [10, 16]: 23%
TIM3 expression [10, 16]: 0.527%
decrease of TIM3 expression compared to PS only group [10, 16]: about 66%
frequency of cells co-expressing PD-1 and TIM3 [10, 16]: 0.198%
reduction of PD-1 expression compared to PS only-treated group [10, 16]: about 35%
reduction of cells co-expressing PD-1 and TIM3 compared to PS only [10, 16]: 91.4%

phosphatidylserine [PS, reference compound]
percent of CD8+ T-cell proliferation ([1]; controls: ConA 20 μg/ml + IL2, 0.1 mM PS): 4.84%
CD8+ T-cell survival ([9]; controls: ConA 20 μg/ml + IL-2, 0.1 mM PS after ConA stimulation): 25.9%
PD-1 expression ([10]; 0.1 mM PS only): 35%
TIM3 expression ([10]; 0.1 mM PS only): 1.53%
frequency of cells co-expressing PD-1 and TIM3 ([10]; 0.1 mM PS only): 2.31%
GzmB+/IFN-γ+ double-positive CD8+ T-cells relative to negative control [11]: one half
microscopic observation of cells [12]: did not look healthy
fold increase in TIM3+/PD-1+ double-positive CD8+ T-cells vs negative control [13]: 1.27 fold
fold increase in CD8+ T-cell proliferation compared to control cells ([14]; 0.1 mM PS): 28 fold
percent proliferation of CD8+ T-cells ([14]; controls: high dose ConA 20 μg/ml, 0.1 mM PS liposomes): 4.24%

From patent US20250177340A1, “Tartaric Acid Analogs and Uses Thereof” (Lapix Therapeutics, Inc., priority 2021, published 2025)
